Several values for one entry are separate records, joined by “and”; a condition that tells them apart may be missing. Identical values can stand only once.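 Grown in 96-well plates, cells were treated for 48 hours with each compound at five concentrations. Insufficient inhibition: endpoint recorded as highest concentration tested. The concentration for 50% growth inhibition is given as GI50. TGI: total growth inhibition.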
Tests used:
Experiment in all cases: inhibition of tumour cell growth, NCI panel, 48 h
SF-539 CNS = system: SF-539 CNS
SF-295 CNS = system: SF-295 CNS
M14 melanoma = system: M14 melanoma
SNB-19 CNS = system: SNB-19 CNS
SR leukemia = system: SR leukemia
UO-31 renal = system: UO-31 renal
KM12 colon = system: KM12 colon
A549 NSCLC = system: A549 NSCLC
T-47D breast = system: T-47D breast
TK-10 renal = system: TK-10 renal
NCI-H226 lung = system: NCI-H226 lung
SK-OV-3 ovarian = system: SK-OV-3 ovarian
HOP-92 NSCLC = system: HOP-92 NSCLC
OVCAR-4 ovarian = system: OVCAR-4 ovarian
MDA-MB-231 breast = system: MDA-MB-231 breast
MCF7 breast = system: MCF7 breast
NCI-H460 lung = system: NCI-H460 lung
OVCAR-5 ovarian = system: OVCAR-5 ovarian
RPMI-8226 leukemia = system: RPMI-8226 leukemia
COLO 205 colon = system: COLO 205 colon
HL-60(TB) leukemia = system: HL-60(TB) leukemia
OVCAR-3 ovarian = system: OVCAR-3 ovarian
EKVX NSCLC = system: EKVX NSCLC
HCC-2998 colon = system: HCC-2998 colon
NCI-H23 lung = system: NCI-H23 lung
786-0 renal = system: 786-0 renal
DU-145 prostate = system: DU-145 prostate
SF-268 CNS = system: SF-268 CNS
NCI/ADR-RES ovarian = system: NCI/ADR-RES ovarian
CAKI-1 renal = system: CAKI-1 renal
IGROV1 ovarian = system: IGROV1 ovarian
UACC-257 melanoma = system: UACC-257 melanoma
A498 renal = system: A498 renal
HCT-15 colon = system: HCT-15 colon
CCRF-CEM leukemia = system: CCRF-CEM leukemia
HS 578T breast = system: HS 578T breast
BT-549 breast = system: BT-549 breast
HT29 colon = system: HT29 colon
OVCAR-8 ovarian = system: OVCAR-8 ovarian
MOLT-4 leukemia = system: MOLT-4 leukemia
HCT-116 colon = system: HCT-116 colon
SNB-75 CNS = system: SNB-75 CNS
SK-MEL-28 melanoma = system: SK-MEL-28 melanoma
U251 CNS = system: U251 CNS
MALME-3M melanoma = system: MALME-3M melanoma
UACC-62 melanoma = system: UACC-62 melanoma
SN12C renal = system: SN12C renal
SK-MEL-5 melanoma = system: SK-MEL-5 melanoma
PC-3 prostate = system: PC-3 prostate
NCI-H522 lung = system: NCI-H522 lung
SW-620 colon = system: SW-620 colon
MDA-MB-435 = system: MDA-MB-435
ACHN renal = system: ACHN renal
RXF 393 renal = system: RXF 393 renal
SK-MEL-2 melanoma = system: SK-MEL-2 melanoma
HOP-62 NSCLC = system: HOP-62 NSCLC
LOX IMVI melanoma = system: LOX IMVI melanoma
K-562 leukemia = system: K-562 leukemia

SMILES: Oc1nc(NCCc2ccccc2)sc1/C=C1\C=Nc2ncccc21
- GI50 (SF-539 CNS): 1.32 µM and 1.47 µM
- TGI (SF-539 CNS): 3.82 µM and 3.65 µM
- GI50 (SF-295 CNS): 3.32 µM and 3.14 µM
- TGI (SF-295 CNS): 13.2 µM and 23.6 µM
- GI50 (M14 melanoma): 3.72 µM and 3.49 µM
- TGI (M14 melanoma): 12.5 µM and 10.4 µM
- GI50 (SNB-19 CNS): 2.47 µM and 2.82 µM
- TGI (SNB-19 CNS): 11.2 µM and 18.7 µM
- GI50 (SR leukemia): 0.397 µM and 0.554 µM
- TGI (SR leukemia): 17.7 µM and 7.79 µM
- GI50 (UO-31 renal): 3.53 µM and 3.83 µM
- TGI (UO-31 renal): 12.4 µM and 84.6 µM
- GI50 (KM12 colon): 2.69 µM and 2.71 µM
- TGI (KM12 colon): 9.91 µM and 13 µM
- GI50 (A549 NSCLC): 3.18 µM and 3.67 µM
- TGI (A549 NSCLC): 12.5 µM and 14.6 µM
- GI50 (T-47D breast): 2.15 µM and 3.22 µM
- TGI (T-47D breast): 9.09 µM and 8.2 µM
- GI50 (TK-10 renal): 3.59 µM and 3.04 µM
- TGI (TK-10 renal): 15.5 µM and 17.7 µM
- GI50 (NCI-H226 lung): 2.99 µM and 3.27 µM
- TGI (NCI-H226 lung): 14.3 µM and 16.1 µM
- GI50 (SK-OV-3 ovarian): 2.08 µM and 2.77 µM
- TGI (SK-OV-3 ovarian): 15.2 µM and 9.07 µM
- GI50 (HOP-92 NSCLC): 1.3 µM and 1.43 µM
- TGI (HOP-92 NSCLC): 8.82 µM and 7.62 µM
- GI50 (OVCAR-4 ovarian): 2.95 µM and 3.69 µM
- TGI (OVCAR-4 ovarian): 11.7 µM and 18.7 µM
- GI50 (MDA-MB-231 breast): 3.05 µM and 3.74 µM
- TGI (MDA-MB-231 breast): 9.27 µM and 21.6 µM
- GI50 (MCF7 breast): 2.79 µM and 2.95 µM
- TGI (MCF7 breast): 11.3 µM and 11.5 µM
- GI50 (NCI-H460 lung): 3.01 µM and 3.16 µM
- TGI (NCI-H460 lung): 10.2 µM and 13.6 µM
- GI50 (OVCAR-5 ovarian): 2.94 µM and 2.93 µM
- TGI (OVCAR-5 ovarian): 27.8 µM and 16.9 µM
- GI50 (RPMI-8226 leukemia): 3.21 µM and 2.99 µM
- TGI (RPMI-8226 leukemia): 12.5 µM and 16.1 µM
- GI50 (COLO 205 colon): 1.93 µM and 2.96 µM
- TGI (COLO 205 colon): 5.95 µM and 11 µM
- GI50 (HL-60(TB) leukemia): 2.34 µM and 2.14 µM
- TGI (HL-60(TB) leukemia): 6.48 µM and 6.88 µM
- GI50 (OVCAR-3 ovarian): 2.16 µM and 2.06 µM
- TGI (OVCAR-3 ovarian): 9.39 µM and 7.33 µM
- GI50 (EKVX NSCLC): 3.18 µM and 3.52 µM
- TGI (EKVX NSCLC): 29.6 µM and 26.9 µM
- GI50 (HCC-2998 colon): 3.6 µM and 6.06 µM
- TGI (HCC-2998 colon): 13.2 µM and 24.3 µM
- GI50 (NCI-H23 lung): 1.62 µM and 2.4 µM
- TGI (NCI-H23 lung): 5.72 µM and 8.12 µM
- GI50 (786-0 renal): 3.03 µM and 3.02 µM
- TGI (786-0 renal): 11.2 µM and 9.85 µM
- GI50 (DU-145 prostate): 2.96 µM and 3.09 µM
- TGI (DU-145 prostate): 12.8 µM and 16.5 µM
- GI50 (SF-268 CNS): 2.72 µM and 2.63 µM
- TGI (SF-268 CNS): 9.07 µM and 8.87 µM
- GI50 (NCI/ADR-RES ovarian): 12.2 µM and 8.3 µM
- TGI (NCI/ADR-RES ovarian): 50 µM and > 100 µM
- GI50 (CAKI-1 renal): 2.61 µM and 5.34 µM
- TGI (CAKI-1 renal): 14 µM and > 100 µM
- GI50 (IGROV1 ovarian): 2.51 µM and 3.03 µM
- TGI (IGROV1 ovarian): 18 µM and 50.4 µM
- GI50 (UACC-257 melanoma): 3.49 µM and 3.36 µM
- TGI (UACC-257 melanoma): 8.68 µM and 8.42 µM
- GI50 (A498 renal): 1.95 µM and 1.84 µM
- TGI (A498 renal): 4.19 µM and 4.45 µM
- GI50 (HCT-15 colon): 2.63 µM and 3.15 µM
- TGI (HCT-15 colon): 13.9 µM and 33.5 µM
- GI50 (CCRF-CEM leukemia): 3.31 µM and 2.42 µM
- TGI (CCRF-CEM leukemia): 13.9 µM and 7.8 µM
- GI50 (HS 578T breast): 2.55 µM and 3.19 µM
- TGI (HS 578T breast): 7.44 µM and 9.51 µM
- GI50 (BT-549 breast): 1.23 µM and 1.35 µM
- TGI (BT-549 breast): 3.26 µM and 3.34 µM
- GI50 (HT29 colon): 2.8 µM and 4 µM
- TGI (HT29 colon): 11.4 µM and 26.7 µM
- GI50 (OVCAR-8 ovarian): 2.91 µM and 3.12 µM
- TGI (OVCAR-8 ovarian): 13.4 µM and 14.8 µM
- GI50 (MOLT-4 leukemia): 3.17 µM and 2.77 µM
- TGI (MOLT-4 leukemia): 11.6 µM and 11 µM
- GI50 (HCT-116 colon): 1.03 µM and 1.23 µM
- TGI (HCT-116 colon): 11.1 µM and 6.5 µM
- GI50 (SNB-75 CNS): 1.81 µM and 1.8 µM
- TGI (SNB-75 CNS): 4.11 µM and 4.29 µM
- GI50 (SK-MEL-28 melanoma): 2.83 µM and 2.52 µM
- TGI (SK-MEL-28 melanoma): 13.6 µM and 7.58 µM
- GI50 (U251 CNS): 2.29 µM and 3.26 µM
- TGI (U251 CNS): 7.89 µM and 11.5 µM
- GI50 (MALME-3M melanoma): 3.28 µM
- TGI (MALME-3M melanoma): 8.93 µM
- GI50 (UACC-62 melanoma): 2.38 µM and 2.93 µM
- TGI (UACC-62 melanoma): 8.56 µM and 8.7 µM
- GI50 (SN12C renal): 2.63 µM and 3.92 µM
- TGI (SN12C renal): 12.9 µM and 74.1 µM
- GI50 (SK-MEL-5 melanoma): 2.45 µM and 2.83 µM
- TGI (SK-MEL-5 melanoma): 6.67 µM and 7.88 µM
- GI50 (PC-3 prostate): 3.27 µM and 3.87 µM
- TGI (PC-3 prostate): 12.2 µM and 19 µM
- GI50 (NCI-H522 lung): 1.43 µM and 1.39 µM
- TGI (NCI-H522 lung): 12.1 µM and 11.6 µM
- GI50 (SW-620 colon): 1.92 µM and 2.37 µM
- TGI (SW-620 colon): 8.09 µM and 11.9 µM
- GI50 (MDA-MB-435): 2.41 µM and 2.83 µM
- TGI (MDA-MB-435): 8.54 µM and 12.2 µM
- GI50 (ACHN renal): 2.45 µM and 2.7 µM
- TGI (ACHN renal): 19.1 µM and 10.8 µM
- GI50 (RXF 393 renal): 1.91 µM and 2.53 µM
- TGI (RXF 393 renal): 4.08 µM and 5.72 µM
- GI50 (SK-MEL-2 melanoma): 2.4 µM and 2.94 µM
- TGI (SK-MEL-2 melanoma): 6.65 µM and 9.08 µM
- GI50 (HOP-62 NSCLC): 2.47 µM and 3.43 µM
- TGI (HOP-62 NSCLC): 7.86 µM and 9.47 µM
- GI50 (LOX IMVI melanoma): 2.36 µM and 2.61 µM
- TGI (LOX IMVI melanoma): 10.6 µM and 9.37 µM
- GI50 (K-562 leukemia): 4.12 µM and 4.7 µM
- TGI (K-562 leukemia): 20 µM and 79.6 µM

Reference: PubChem BioAssay (NCI)
